From US7098332B2, “5,8-Dihydro-6H-pyrido[2,3-d]pyrimidin-7-ones” (Hoffmann-La Roche Inc., priority 2002, dated 2006)

Experiments:
Format in all cases: biochemical
EGFR = EGFR (Homo sapiens, UniProt P00533); assay: EGFR kinase HTRF assay; details: 0.5 μM ATP
Procedure: (§1) To determine inhibition of KDR, FGFR, EGFR, and PDGFR activity, kinase assays were conducted using an HTRF (Homogeneous Time Resolved Fluorescence) assay. This assay is described in A. J. Kolb et. al., Drug Discovery Today, 1998, 3(7), p 333.
(§2) Kinase activity assays were performed in 96-well polypropylene plates (Falcon) with a total volume of 90 μL in each well. Each well contained 1 μM KDR substrate (Biotin-EEEEYFELVAKKKK), 1 nM activated KDR, and a test compound with one of 8 assay concentrations ranging from 100 μM to […] (1:5 serial dilution). The kinase activity assay was done in the presence of 100 mM HEPES, pH 7.4, 1 mM DTT, 0.1 mM Na2VO4, 25 mM MgCl2, 50 mM NaCl (from KDR stock solution), 1% DMSO (from compound), 0.3 mM ATP (at Km concentration) and 0.02% BSA. The reaction was incubated at 37° C. for 30 minutes. To stop the KDR reaction, 72 μL of reaction mixture was transferred into a STOP plate containing 18 μL of revelation buffer (20 mM EDTA, 50 mM HEPES, pH 7.4, 0.02% BSA, 10 nM Eu-labelled anti-pY antibody (final conc. 2 nM), and 100 nM streptavidin (final conc. 20 nM)). After mixing, 35 μL of solution was transferred into duplicate wells of a 384-well black plate (Costar), and read at 615/665 nm on a Wallac Victor 5 reader.
(§3) The EGFR kinase activity assay was performed with 1 μM substrate (Biotin-EEEEYFELV), 1.5 nM EGFR, test compounds, 100 mM HEPES, pH 7.4, 1 mM DTT, 5 mM MgCl2, 2 mM MnCl2, 1% DMSO, 0.5 μM ATP (Km for EGFR), 0.1 mM Na2VO4, and 0.02% BSA. The rest of the assay was performed in the same manner as the KDR assay.
(§4) Compound IC50 values were determined from duplicate sets of data, and calculated by using Excel and fitting data to equation Y=[(a−b)/{1+(X/c)^d]+b, where a and b are enzyme activity in the presence of no test inhibitor compound and an infinite amount of inhibitor test compound, respectively, c is the IC50 and d is the hill constant of the compound response. The IC50 value is the concentration of test compound that reduces by 50% the enzyme activity under the test conditions described.

KDR = molecular target: T1, KDR (Homo sapiens, UniProt P35968); assay: KDR kinase HTRF assay; details: 0.3 mM ATP
T1 construct: EEE tag
T1 sequence (P35968 20-1356): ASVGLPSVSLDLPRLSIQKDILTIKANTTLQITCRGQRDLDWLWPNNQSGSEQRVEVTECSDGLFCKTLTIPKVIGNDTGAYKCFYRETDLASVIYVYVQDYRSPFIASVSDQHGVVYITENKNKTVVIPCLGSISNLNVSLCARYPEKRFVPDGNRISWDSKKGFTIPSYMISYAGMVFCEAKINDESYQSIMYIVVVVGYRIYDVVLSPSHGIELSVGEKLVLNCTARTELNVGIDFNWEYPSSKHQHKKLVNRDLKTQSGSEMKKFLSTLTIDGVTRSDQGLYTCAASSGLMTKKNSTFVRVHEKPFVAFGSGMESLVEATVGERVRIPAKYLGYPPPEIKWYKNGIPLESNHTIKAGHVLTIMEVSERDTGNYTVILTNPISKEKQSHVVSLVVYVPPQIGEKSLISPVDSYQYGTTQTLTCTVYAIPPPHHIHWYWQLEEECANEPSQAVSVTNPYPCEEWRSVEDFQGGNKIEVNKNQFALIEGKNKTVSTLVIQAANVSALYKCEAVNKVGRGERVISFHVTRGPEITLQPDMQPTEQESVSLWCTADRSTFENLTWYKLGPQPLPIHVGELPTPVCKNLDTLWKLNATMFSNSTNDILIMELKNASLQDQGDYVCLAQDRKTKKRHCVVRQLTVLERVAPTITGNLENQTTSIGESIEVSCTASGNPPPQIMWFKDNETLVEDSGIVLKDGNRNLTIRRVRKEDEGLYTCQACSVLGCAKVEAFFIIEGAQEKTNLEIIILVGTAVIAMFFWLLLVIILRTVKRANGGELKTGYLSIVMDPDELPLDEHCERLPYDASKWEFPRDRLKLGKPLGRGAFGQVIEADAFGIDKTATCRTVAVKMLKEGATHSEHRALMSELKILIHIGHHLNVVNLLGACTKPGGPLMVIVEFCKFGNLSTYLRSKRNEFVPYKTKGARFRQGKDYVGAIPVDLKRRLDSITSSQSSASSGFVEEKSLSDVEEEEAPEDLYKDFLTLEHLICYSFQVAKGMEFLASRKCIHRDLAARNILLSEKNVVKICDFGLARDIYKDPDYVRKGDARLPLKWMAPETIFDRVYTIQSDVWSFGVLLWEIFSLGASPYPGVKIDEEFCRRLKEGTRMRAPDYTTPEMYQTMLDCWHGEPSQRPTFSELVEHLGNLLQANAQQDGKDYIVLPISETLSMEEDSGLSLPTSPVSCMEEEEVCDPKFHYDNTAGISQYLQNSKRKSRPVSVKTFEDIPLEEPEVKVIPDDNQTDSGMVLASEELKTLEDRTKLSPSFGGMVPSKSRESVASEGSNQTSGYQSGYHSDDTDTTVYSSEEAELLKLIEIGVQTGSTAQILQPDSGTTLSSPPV
Procedure: as §1
Prior to kinase reaction, recombinant EEE-tagged KDR was activated in the presence of activation buffer (50 mM HEPES, pH 7.4, 1 mM DTT, 10% glycerol, 150 mM NaCl, 0.1 mM EDTA, 26 mM MgCl2, and 4 mM ATP). The enzyme was incubated at 4° C. for 1 hour.
as §2, §4

FGFR = molecular target: T2, FGFR; assay: FGFR kinase HTRF assay; details: 10 μM ATP
T2 construct: fused on or other part: GST tag
Procedure: as §1, §2
FGFR, EGFR, and PDGFR activity assays were carried out as described above for the KDR activity assay with the following differences. GST-tagged FGFR enzyme was activated at room temperature for 1 hour in the following activation buffer: 100 mM HEPES, pH 7.4, 50 mM NaCl, 20 mM MgCl2, and 4 mM ATP. The kinase activity assay was performed with 1 μM substrate (Biotin-EEEEYFELV), 1.5 nM activated FGFR, and test compound in the presence of 100 mM HEPES, 1 mM DTT, 0.4 mM MgCl2, 0.4 mM MnCl2, 50 mM NaCl, 1% DMSO, 10 μM ATP (Km=8.5 μM for FGFR), 0.1 mM Na2VO4, and 0.02% BSA, in a total volume of 90 μL. The rest of the assay was performed in the same manner as KDR assay.
as §4

PDGFR = PDGFR kinase HTRF assay; details: 2.3 μM ATP
Procedure: as §1, §2
as §3, with “PDGFR” for “EGFR”, “1.0” for “1.5”, “PDGFR,” for “EGFR,”, “2.3” for “0.5”, “PDGFR),” for “EGFR),”
as §4

Sequence of EGFR (P00533 25-1210, species assumed): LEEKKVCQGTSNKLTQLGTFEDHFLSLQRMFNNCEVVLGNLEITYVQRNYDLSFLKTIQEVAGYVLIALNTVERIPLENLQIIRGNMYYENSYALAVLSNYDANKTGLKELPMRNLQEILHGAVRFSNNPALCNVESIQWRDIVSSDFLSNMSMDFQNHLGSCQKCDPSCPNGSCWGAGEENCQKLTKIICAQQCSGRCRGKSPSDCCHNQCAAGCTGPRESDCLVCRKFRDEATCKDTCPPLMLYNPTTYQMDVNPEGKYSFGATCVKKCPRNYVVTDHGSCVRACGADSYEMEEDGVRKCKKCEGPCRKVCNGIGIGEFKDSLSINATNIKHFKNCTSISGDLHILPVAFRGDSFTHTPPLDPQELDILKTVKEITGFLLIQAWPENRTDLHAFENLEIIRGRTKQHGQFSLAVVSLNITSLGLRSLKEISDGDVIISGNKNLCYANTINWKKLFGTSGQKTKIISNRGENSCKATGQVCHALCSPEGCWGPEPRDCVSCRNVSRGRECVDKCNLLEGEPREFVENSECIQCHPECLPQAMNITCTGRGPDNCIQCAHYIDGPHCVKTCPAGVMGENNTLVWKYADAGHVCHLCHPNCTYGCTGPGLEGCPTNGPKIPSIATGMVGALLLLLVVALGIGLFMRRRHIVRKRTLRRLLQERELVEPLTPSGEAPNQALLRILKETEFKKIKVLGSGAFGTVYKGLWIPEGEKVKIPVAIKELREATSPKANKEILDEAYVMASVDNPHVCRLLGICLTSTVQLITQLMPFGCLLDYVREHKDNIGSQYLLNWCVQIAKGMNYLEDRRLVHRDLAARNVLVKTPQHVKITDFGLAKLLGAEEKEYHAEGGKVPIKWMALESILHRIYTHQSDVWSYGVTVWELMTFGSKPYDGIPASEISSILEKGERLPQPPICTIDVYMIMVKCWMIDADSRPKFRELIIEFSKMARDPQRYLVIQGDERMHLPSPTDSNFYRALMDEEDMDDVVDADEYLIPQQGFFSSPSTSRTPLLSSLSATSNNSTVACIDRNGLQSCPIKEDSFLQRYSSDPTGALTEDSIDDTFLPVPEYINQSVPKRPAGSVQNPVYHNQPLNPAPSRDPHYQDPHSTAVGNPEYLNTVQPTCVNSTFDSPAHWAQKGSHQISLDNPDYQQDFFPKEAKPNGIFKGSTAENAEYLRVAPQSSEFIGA

Row | Structure (SMILES) | IC50 (EGFR) | IC50 (KDR) | IC50 (FGFR) | IC50 (PDGFR)
1 | O=C1C(c2cc(C(F)(F)F)cc(C(F)(F)F)c2)Cc2cnc(Nc3ccccc3)nc2N1c1ccccc1 (stereo not drawn) [Example 8d, 6-(3,5-Bis-trifluromethyl-phenyl)-8-phenyl-2-phenylamino-5,8-dihydro-6H-pyrido[2,3-d]pyrimidin-7-one] | > 10 µM | > 10 µM | > 10 µM | < 10 µM
2 | O=C1C(c2cccnc2)Cc2cnc(Nc3ccccc3)nc2N1c1ccccc1 (stereo not drawn) [Example 10c, 8-Phenyl-2-phenylamino-6-pyridin-3-yl-5,8-dihydro-6H-pyrido[2,3-d]pyrimidin-7-one] | < 10 µM | < 10 µM | < 10 µM | < 10 µM
3 | COc1ccc(C2Cc3cnc(Nc4ccc(OC)nc4)nc3N(c3ccccc3)C2=O)cc1 (stereo not drawn) [Example 12d, 6-(4-Methoxy-phenyl)-2-(6-methoxy-pyridin-3-ylamino)-8-phenyl-5,8-dihydro-6H-pyrido[2,3-d]pyrimidine-7-one] | < 10 µM | < 10 µM | < 10 µM | < 10 µM
4 | COc1ccc(C2Cc3cnc(Nc4ccccc4)nc3N(CC(C)C)C2=O)cc1 (stereo not drawn) [Example 13b, 8-Isobutyl-6-(4-methoxy-phenyl)-2-phenylamino-5,8-dihydro-6H-pyrido[2,3-d]pyrimidine-7-one] | < 10 µM | < 10 µM | < 10 µM | < 10 µM
5 | COc1ccc(C2Cc3cnc(Nc4ccccc4)nc3N(CC3CC3)C2=O)cc1 (stereo not drawn) [Example 14b, 8-Cyclopropylmethyl-6-(4-methoxy-phenyl)-2-phenylamino-5,8-dihydro-6H-pyrido[2,3-d]pyrimidine-7-one] | < 10 µM | < 10 µM | < 10 µM | < 10 µM

Further lines, results first:

Row | IC50 (EGFR) | IC50 (KDR) | IC50 (FGFR) | IC50 (PDGFR) | Structure (SMILES)
6 | < 10 µM | < 10 µM | < 10 µM | < 10 µM | COc1ccc(C2Cc3cnc(Nc4ccccc4)nc3N(c3ccccc3)C2=O)cc1 (stereo not drawn) [Example 1f, 6-(4-Methoxy-phenyl)-8-phenyl-2-phenylamino-5,8-dihydro-6H-pyrido[2,3-d]pyrimidin-7-one]
7 | < 10 µM | < 10 µM | < 10 µM | < 10 µM | Cc1ccccc1C1Cc2cnc(Nc3ccccc3)nc2N(c2ccccc2)C1=O (stereo not drawn) [Example 4c, 8-Phenyl-2-phenylamino-6-O-tolyl-5,8-dihydro-6H-pyrido[2,3-d]pyrimidin-7-one]
8 | < 10 µM | < 10 µM | < 10 µM | < 10 µM | O=C1C(c2ccccc2)Cc2cnc(Nc3ccccc3)nc2N1c1ccccc1 (stereo not drawn) [Example 5c, 6,8-Diphenyl-2-phenylamino-5,8-dihydro-6H-pyrido[2,3-d]pyrimidin-7-one]
9 | < 10 µM | < 10 µM | < 10 µM | < 10 µM | COc1ccc(OC)c(C2Cc3cnc(Nc4ccccc4)nc3N(c3ccccc3)C2=O)c1 (stereo not drawn) [Example 6c, 6-(2,5-Dimethoxy-phenyl)-8-phenyl-2-phenylamino-5,8-dihydro-6H-pyrido[2,3-d]pyrimidin-7-one]
10 | < 10 µM | < 10 µM | < 10 µM | < 10 µM | COc1ccccc1C1Cc2cnc(Nc3ccccc3)nc2N(c2ccccc2)C1=O (stereo not drawn) [Example 7c, 6-(2-Methoxy-phenyl)-8-phenyl-2-phenylamino-5,8-dihydro-6H-pyrido[2,3-d]pyrimidin-7-one]
11 | < 10 µM | < 10 µM | > 10 µM | > 10 µM | O=C1C(c2ccncc2)Cc2cnc(Nc3ccccc3)nc2N1c1ccccc1 (stereo not drawn) [Example 9c, 8-Phenyl-2-phenylamino-6-pyridin-4-yl-5,8-dihydro-6H-pyrido[2,3-d]pyrimidin-7-one]
12 | > 10 µM | < 10 µM | < 10 µM | < 10 µM | COc1ccc(C2Cc3cnc(Nc4ccccc4)nc3N(c3ccccc3)C2=O)cc1OC (stereo not drawn) [Example 11c, 6-(3,4-Dimethoxy-phenyl)-8-phenyl-2-phenylamino-5,8-dihydro-6H-pyrido[2,3-d]pyrimidin-7-one]
